Reference: the kinase profiling compilation of Christmann-Franck et al. (2016)
Where “and” joins values, the source holds several entries; their conditions need not be identical. Equal values may be shown once. Blank lines part the entries; values can stand above or below the compound they belong to.

Tests used:
Experiment in all cases: Caliper, Mobility shift assay off-chip
[1] = molecular target: AKT1 (human) (UniProt P31749)
[2] = molecular target: AKT2 (human) (UniProt P31751)
[3] = molecular target: AURKA (human) (UniProt O14965)
[4] = molecular target: AURKC (human) (UniProt Q9UQB9)
[5] = molecular target: BLK (human) (UniProt P51451)
[6] = molecular target: CAMK2A (human) (UniProt Q9UQM7)
[7] = molecular target: CDK1 (human) (UniProt P06493)
[8] = molecular target: CHEK2 (human) (UniProt O96017)
[9] = molecular target: DYRK3 (human) (UniProt O43781)
[10] = molecular target: EPHB1 (human) (UniProt P54762)
[11] = molecular target: FLT3 (human) (UniProt P36888)
[12] = test system: FLT3 (human), P36888 [D835Y]
[13] = molecular target: FYN (human) (UniProt P06241)
[14] = molecular target: HIPK1 (human) (UniProt Q86Z02)
[15] = molecular target: KIT (human) (UniProt P10721)
[16] = test system: KIT (human), P10721 [T670I]
[17] = molecular target: MAPK11 (human) (UniProt Q15759)
[18] = molecular target: MAPK12 (human) (UniProt P53778)
[19] = molecular target: MARK1 (human) (UniProt Q9P0L2)
[20] = molecular target: NTRK3 (human) (UniProt Q16288)
[21] = molecular target: PAK2 (human) (UniProt Q13177)
[22] = molecular target: PIM2 (human) (UniProt Q9P1W9)
[23] = molecular target: PRKCD (human) (UniProt Q05655)
[24] = molecular target: PRKCE (human) (UniProt Q02156)
[25] = molecular target: PRKCG (human) (UniProt P05129)
[26] = molecular target: PRKD2 (human) (UniProt Q9BZL6)
[27] = molecular target: PRKD3 (human) (UniProt O94806)
[28] = molecular target: PRKG1 (human) (UniProt Q13976)
[29] = molecular target: PTK2B (human) (UniProt Q14289)
[30] = molecular target: RAF1 (human) (UniProt P04049)
[31] = molecular target: RPS6KA4 KD1 KD2 (human) (UniProt O75676)
[32] = molecular target: SGK1 (human) (UniProt O00141)
[33] = molecular target: STK3 (human) (UniProt Q13188)
[34] = molecular target: TSSK2 (human) (UniProt Q96PF2)

Chain of MARK1 (human) (Q9P0L2 whole entry, looked up): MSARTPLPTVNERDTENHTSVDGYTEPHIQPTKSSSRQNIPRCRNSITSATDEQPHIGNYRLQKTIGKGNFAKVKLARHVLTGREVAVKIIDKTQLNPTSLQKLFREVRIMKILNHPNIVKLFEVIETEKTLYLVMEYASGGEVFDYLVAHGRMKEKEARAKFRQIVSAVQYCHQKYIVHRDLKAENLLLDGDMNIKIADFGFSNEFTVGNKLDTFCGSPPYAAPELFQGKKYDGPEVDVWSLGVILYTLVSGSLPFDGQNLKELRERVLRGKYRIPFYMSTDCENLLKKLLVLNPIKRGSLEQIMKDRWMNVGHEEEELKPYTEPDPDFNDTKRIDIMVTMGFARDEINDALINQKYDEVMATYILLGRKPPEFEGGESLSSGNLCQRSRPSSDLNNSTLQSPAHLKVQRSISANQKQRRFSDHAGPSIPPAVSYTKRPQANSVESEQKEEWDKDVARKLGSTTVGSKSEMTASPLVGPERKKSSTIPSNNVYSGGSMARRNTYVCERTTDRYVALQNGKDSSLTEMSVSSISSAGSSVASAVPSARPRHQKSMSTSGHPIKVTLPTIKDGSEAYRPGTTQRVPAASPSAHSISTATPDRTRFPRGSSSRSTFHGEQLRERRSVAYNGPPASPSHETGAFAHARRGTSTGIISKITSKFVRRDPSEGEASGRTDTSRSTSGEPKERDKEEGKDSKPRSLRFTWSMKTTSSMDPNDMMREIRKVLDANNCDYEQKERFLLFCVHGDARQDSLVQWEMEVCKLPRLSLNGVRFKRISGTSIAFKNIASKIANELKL
Chain of RPS6KA4 KD1 KD2 (human) (O75676 whole entry, looked up): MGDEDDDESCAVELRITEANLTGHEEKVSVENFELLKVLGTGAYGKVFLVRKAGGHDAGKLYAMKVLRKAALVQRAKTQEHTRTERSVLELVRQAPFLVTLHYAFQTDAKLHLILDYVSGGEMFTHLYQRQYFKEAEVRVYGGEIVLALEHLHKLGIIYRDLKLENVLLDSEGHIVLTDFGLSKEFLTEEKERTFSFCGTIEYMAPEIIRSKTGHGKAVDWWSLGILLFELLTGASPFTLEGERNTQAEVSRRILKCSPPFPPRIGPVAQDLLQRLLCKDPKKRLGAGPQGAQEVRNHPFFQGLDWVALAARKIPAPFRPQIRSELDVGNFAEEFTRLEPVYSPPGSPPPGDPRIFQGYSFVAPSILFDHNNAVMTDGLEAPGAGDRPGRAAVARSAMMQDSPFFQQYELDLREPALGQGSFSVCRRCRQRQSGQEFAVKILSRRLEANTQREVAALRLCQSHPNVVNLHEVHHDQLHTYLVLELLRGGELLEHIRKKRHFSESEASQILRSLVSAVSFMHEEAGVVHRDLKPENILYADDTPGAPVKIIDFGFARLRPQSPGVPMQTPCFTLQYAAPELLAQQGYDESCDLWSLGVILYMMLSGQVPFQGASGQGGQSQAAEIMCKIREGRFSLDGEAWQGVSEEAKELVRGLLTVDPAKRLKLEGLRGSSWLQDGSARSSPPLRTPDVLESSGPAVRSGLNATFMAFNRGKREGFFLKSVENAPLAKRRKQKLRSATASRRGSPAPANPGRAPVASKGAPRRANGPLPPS
Chain of PIM2 (human) (Q9P1W9 whole entry, looked up): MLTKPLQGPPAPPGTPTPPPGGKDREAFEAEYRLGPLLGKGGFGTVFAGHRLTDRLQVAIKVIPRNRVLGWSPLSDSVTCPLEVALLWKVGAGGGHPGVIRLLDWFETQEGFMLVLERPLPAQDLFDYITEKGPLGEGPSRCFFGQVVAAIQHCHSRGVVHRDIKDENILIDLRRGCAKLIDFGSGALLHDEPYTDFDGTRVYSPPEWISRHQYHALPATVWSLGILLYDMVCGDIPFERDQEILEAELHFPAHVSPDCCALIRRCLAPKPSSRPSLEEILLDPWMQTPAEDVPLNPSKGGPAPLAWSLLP
Chain of AKT2 (human) (P31751 whole entry, looked up): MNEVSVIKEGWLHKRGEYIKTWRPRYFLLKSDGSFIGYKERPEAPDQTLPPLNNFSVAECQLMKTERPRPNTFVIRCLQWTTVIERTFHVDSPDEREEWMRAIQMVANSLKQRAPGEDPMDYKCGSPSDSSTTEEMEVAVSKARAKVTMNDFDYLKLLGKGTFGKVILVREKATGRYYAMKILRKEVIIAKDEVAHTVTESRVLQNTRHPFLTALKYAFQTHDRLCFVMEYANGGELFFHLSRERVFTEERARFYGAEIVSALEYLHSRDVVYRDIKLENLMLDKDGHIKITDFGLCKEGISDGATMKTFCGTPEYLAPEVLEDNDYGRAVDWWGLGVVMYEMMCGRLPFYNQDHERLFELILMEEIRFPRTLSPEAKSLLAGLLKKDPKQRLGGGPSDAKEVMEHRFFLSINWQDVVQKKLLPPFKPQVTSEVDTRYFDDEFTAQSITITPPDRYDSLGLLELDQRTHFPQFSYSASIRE
Chain of CHEK2 (human) (O96017 whole entry, looked up): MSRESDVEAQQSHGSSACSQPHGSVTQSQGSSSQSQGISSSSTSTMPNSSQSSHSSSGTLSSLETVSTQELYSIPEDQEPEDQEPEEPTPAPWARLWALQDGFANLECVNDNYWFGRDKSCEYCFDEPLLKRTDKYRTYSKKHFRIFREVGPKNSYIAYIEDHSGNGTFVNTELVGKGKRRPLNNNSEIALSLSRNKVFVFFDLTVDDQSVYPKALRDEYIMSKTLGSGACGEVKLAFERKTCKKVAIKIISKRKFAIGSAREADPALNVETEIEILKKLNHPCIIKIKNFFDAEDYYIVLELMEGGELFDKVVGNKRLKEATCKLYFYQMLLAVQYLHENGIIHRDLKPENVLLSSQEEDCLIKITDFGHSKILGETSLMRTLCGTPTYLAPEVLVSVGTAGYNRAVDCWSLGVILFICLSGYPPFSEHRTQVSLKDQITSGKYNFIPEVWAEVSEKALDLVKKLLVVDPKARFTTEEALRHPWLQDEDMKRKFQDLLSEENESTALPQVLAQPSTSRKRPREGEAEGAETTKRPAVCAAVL
Chain of BLK (human) (P51451 whole entry, looked up): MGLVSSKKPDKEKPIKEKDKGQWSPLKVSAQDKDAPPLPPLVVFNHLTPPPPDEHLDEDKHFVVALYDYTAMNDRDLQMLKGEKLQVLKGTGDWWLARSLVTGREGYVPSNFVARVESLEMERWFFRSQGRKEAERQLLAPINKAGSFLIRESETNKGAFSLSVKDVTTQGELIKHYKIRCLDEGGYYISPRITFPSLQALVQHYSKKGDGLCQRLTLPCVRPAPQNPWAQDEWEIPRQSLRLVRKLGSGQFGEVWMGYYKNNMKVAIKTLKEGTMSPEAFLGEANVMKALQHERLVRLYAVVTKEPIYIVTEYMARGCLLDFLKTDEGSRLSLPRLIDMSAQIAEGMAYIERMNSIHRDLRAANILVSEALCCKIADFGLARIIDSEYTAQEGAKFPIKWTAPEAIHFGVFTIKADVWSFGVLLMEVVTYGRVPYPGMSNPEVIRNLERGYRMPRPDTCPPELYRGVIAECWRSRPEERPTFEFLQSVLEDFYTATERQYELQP
Chain of AURKA (human) (O14965 whole entry, looked up): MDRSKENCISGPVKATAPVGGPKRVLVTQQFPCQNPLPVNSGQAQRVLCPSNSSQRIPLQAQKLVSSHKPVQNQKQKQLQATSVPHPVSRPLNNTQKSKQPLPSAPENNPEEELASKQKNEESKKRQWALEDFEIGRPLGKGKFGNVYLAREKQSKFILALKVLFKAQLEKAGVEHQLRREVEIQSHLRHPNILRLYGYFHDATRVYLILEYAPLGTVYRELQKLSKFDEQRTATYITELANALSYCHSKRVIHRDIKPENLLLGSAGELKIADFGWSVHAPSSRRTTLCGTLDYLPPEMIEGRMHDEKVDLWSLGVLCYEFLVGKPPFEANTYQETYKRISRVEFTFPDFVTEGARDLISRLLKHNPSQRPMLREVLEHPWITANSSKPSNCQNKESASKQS
Chain of KIT (human) (P10721 whole entry, looked up): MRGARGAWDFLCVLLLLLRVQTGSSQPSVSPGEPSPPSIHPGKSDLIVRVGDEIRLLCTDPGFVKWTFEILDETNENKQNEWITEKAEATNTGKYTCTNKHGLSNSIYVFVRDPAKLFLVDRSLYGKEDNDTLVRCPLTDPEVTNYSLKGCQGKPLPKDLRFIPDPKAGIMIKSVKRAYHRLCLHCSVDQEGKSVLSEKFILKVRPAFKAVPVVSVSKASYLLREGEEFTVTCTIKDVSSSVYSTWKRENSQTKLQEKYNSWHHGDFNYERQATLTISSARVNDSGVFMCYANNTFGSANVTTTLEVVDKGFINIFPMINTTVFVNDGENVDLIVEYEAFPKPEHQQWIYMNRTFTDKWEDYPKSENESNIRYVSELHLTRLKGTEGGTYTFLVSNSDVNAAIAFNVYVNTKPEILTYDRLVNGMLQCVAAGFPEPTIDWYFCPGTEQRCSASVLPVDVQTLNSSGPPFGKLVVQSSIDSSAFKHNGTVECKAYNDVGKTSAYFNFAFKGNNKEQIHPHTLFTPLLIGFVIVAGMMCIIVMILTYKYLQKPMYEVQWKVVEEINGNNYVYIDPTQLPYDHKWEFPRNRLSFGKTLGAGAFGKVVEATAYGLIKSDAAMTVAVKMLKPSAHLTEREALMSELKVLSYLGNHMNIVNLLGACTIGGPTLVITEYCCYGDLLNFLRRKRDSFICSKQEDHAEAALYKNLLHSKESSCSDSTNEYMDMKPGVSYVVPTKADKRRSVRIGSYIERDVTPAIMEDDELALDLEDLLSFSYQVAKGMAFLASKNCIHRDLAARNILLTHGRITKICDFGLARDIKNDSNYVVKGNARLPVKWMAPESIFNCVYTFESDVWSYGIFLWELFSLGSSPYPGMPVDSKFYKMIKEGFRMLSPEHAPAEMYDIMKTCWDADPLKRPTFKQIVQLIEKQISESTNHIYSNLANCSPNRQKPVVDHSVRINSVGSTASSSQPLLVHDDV
Chain of KIT (human), P10721 [T670I] (P10721 whole entry T670I, looked up): as the sequence (P10721 whole entry, looked up) above, with T670I counted along it

- inhibition ([1]; compound 0.1 µM): -7.2%
- inhibition ([1]; compound 1.0 µM): 1.7%
- inhibition ([2]; compound 0.1 µM): -1.5%
- inhibition ([2]; compound 1.0 µM): 3.1%
- inhibition ([3]; compound 0.1 µM): 3.7%
- inhibition ([3]; compound 1.0 µM): 22.4%
- inhibition ([4]; compound 0.1 µM): 7.5%
- inhibition ([4]; compound 1.0 µM): 18.6%
- inhibition ([5]; compound 0.1 µM): -0.5%
- inhibition ([5]; compound 1.0 µM): 16.6%
- inhibition ([6]; compound 0.1 µM): -8.9%
- inhibition ([6]; compound 1.0 µM): -3.1%
- inhibition ([7]; compound 0.1 µM): -3.9%
- inhibition ([7]; compound 1.0 µM): 1.2%
- inhibition ([8]; compound 0.1 µM): 4.2%
- inhibition ([8]; compound 1.0 µM): 1.2%
- inhibition ([9]; compound 0.1 µM): -1.4%
- inhibition ([9]; compound 1.0 µM): 2.9%
- inhibition ([10]; compound 0.1 µM): 1%
- inhibition ([10]; compound 1.0 µM): 3.3%
- inhibition ([11]; compound 0.1 µM): -5.8%
- inhibition ([11]; compound 1.0 µM): -4%
- inhibition ([12]; compound 0.1 µM): -1%
- inhibition ([12]; compound 1.0 µM): 3.4%
- inhibition ([13]; compound 0.1 µM): -4.2%
- inhibition ([13]; compound 1.0 µM): 2.7%
- inhibition ([14]; compound 0.1 µM): 7.2%
- inhibition ([14]; compound 1.0 µM): -0.1%
- inhibition ([15]; compound 0.1 µM): -1.6%
- inhibition ([15]; compound 1.0 µM): 6.6%
- inhibition ([16]; compound 0.1 µM): -3.3%
- inhibition ([16]; compound 1.0 µM): -4.9%
- inhibition ([17]; compound 0.1 µM): 0.6%
- inhibition ([17]; compound 1.0 µM): -1%
- inhibition ([18]; compound 0.1 µM): 6.1%
- inhibition ([18]; compound 1.0 µM): 8.3%
- inhibition ([19]; compound 0.1 µM): -5.4%
- inhibition ([19]; compound 1.0 µM): -1.3%
- inhibition ([20]; compound 0.1 µM): 6%
- inhibition ([20]; compound 1.0 µM): 10.4%
- inhibition ([21]; compound 0.1 µM): 2.1%
- inhibition ([21]; compound 1.0 µM): 13.1%
- inhibition ([22]; compound 0.1 µM): -0.1%
- inhibition ([22]; compound 1.0 µM): -3.2%
- inhibition ([23]; compound 0.1 µM): 0.7%
- inhibition ([23]; compound 1.0 µM): -5.4%
- inhibition ([24]; compound 0.1 µM): 9.3%
- inhibition ([24]; compound 1.0 µM): -0.4%
- inhibition ([25]; compound 0.1 µM): 10.9%
- inhibition ([25]; compound 1.0 µM): -15%
- inhibition ([26]; compound 0.1 µM): 7.5%
- inhibition ([26]; compound 1.0 µM): 0%
- inhibition ([27]; compound 0.1 µM): -21.2%
- inhibition ([27]; compound 1.0 µM): 2.2%
- inhibition ([28]; compound 0.1 µM): -5% and 4.5%
- inhibition ([28]; compound 1.0 µM): -1.6% and 0.1%
- inhibition ([29]; compound 0.1 µM): 10%
- inhibition ([29]; compound 1.0 µM): 2.5%
- inhibition ([30]; compound 0.1 µM): 3.2%
- inhibition ([30]; compound 1.0 µM): -9.1%
- inhibition ([31]; compound 0.1 µM): -5.8%
- inhibition ([31]; compound 1.0 µM): 1%
- inhibition ([32]; compound 0.1 µM): -2.2%
- inhibition ([32]; compound 1.0 µM): -6%
- inhibition ([33]; compound 0.1 µM): 1.9%
- inhibition ([33]; compound 1.0 µM): 4.5%
- inhibition ([34]; compound 0.1 µM): -2.3%
- inhibition ([34]; compound 1.0 µM): 1.3%
SMILES: O=C(CCc1ccc2ccc3ncc(C4CCNCC4)cc3c(=O)c2c1)NCc1ccccn1

- inhibition ([1]; compound 0.01 µM): 0.8%
- inhibition ([1]; compound 0.1 µM): 7.4%
- inhibition ([2]; compound 0.01 µM): -1.3%
- inhibition ([2]; compound 0.1 µM): 2%
- inhibition ([3]; compound 0.01 µM): 5.8%
- inhibition ([3]; compound 0.1 µM): 6.9%
- inhibition ([4]; compound 0.01 µM): -1.6%
- inhibition ([4]; compound 0.1 µM): 15.4%
- inhibition ([5]; compound 0.01 µM): 0.8%
- inhibition ([5]; compound 0.1 µM): 15.8%
- inhibition ([6]; compound 0.01 µM): -12.3%
- inhibition ([6]; compound 0.1 µM): -3.8%
- inhibition ([7]; compound 0.01 µM): -5.7%
- inhibition ([7]; compound 0.1 µM): 1.6%
- inhibition ([8]; compound 0.01 µM): -2.6%
- inhibition ([8]; compound 0.1 µM): -7.4%
- inhibition ([9]; compound 0.01 µM): 1.8%
- inhibition ([9]; compound 0.1 µM): 19.6%
- inhibition ([10]; compound 0.01 µM): 5.1%
- inhibition ([10]; compound 0.1 µM): -8%
- inhibition ([11]; compound 0.01 µM): -1%
- inhibition ([11]; compound 0.1 µM): -2.3%
- inhibition ([12]; compound 0.01 µM): -3%
- inhibition ([12]; compound 0.1 µM): 6.8%
- inhibition ([13]; compound 0.01 µM): -0.7%
- inhibition ([13]; compound 0.1 µM): -3%
- inhibition ([14]; compound 0.01 µM): 1.9%
- inhibition ([14]; compound 0.1 µM): 4.6%
- inhibition ([15]; compound 0.01 µM): -3.5%
- inhibition ([15]; compound 0.1 µM): 13.6%
- inhibition ([16]; compound 0.01 µM): 1.3%
- inhibition ([16]; compound 0.1 µM): -4.9%
- inhibition ([17]; compound 0.01 µM): -7.7%
- inhibition ([17]; compound 0.1 µM): 4.9%
- inhibition ([18]; compound 0.01 µM): 2%
- inhibition ([18]; compound 0.1 µM): 5.1%
- inhibition ([19]; compound 0.01 µM): 0.6%
- inhibition ([19]; compound 0.1 µM): 5.5%
- inhibition ([20]; compound 0.01 µM): 8.4%
- inhibition ([20]; compound 0.1 µM): -0.4%
- inhibition ([21]; compound 0.01 µM): 4.4%
- inhibition ([21]; compound 0.1 µM): 4.9%
- inhibition ([22]; compound 0.01 µM): -11%
- inhibition ([22]; compound 0.1 µM): 4.3%
- inhibition ([23]; compound 0.01 µM): -8.7%
- inhibition ([23]; compound 0.1 µM): 8.3%
- inhibition ([24]; compound 0.01 µM): -0.5%
- inhibition ([24]; compound 0.1 µM): 3.8%
- inhibition ([25]; compound 0.01 µM): 2.4%
- inhibition ([25]; compound 0.1 µM): 2.1%
- inhibition ([26]; compound 0.01 µM): 1.6%
- inhibition ([26]; compound 0.1 µM): -3.6%
- inhibition ([27]; compound 0.01 µM): -2.4%
- inhibition ([27]; compound 0.1 µM): 10.4%
- inhibition ([28]; compound 0.01 µM): 3.2% and -1.8%
- inhibition ([28]; compound 0.1 µM): 9.2% and -4.9%
- inhibition ([29]; compound 0.01 µM): -1%
- inhibition ([29]; compound 0.1 µM): 6.8%
- inhibition ([30]; compound 0.01 µM): 2.2%
- inhibition ([30]; compound 0.1 µM): 4.5%
- inhibition ([31]; compound 0.01 µM): -2.3%
- inhibition ([31]; compound 0.1 µM): -2.1%
- inhibition ([32]; compound 0.01 µM): 2.1%
- inhibition ([32]; compound 0.1 µM): 9.1%
- inhibition ([33]; compound 0.01 µM): 7.9%
- inhibition ([33]; compound 0.1 µM): 17.7%
- inhibition ([34]; compound 0.01 µM): 2.5%
- inhibition ([34]; compound 0.1 µM): 0.7%
SMILES: Cn1cc(-c2cnc3ccc4ccc(CS(=O)(=O)NC5CCCCC5)cc4c(=O)c3c2)cn1

- inhibition ([1]; compound 0.1 µM): -4.1%
- inhibition ([1]; compound 1.0 µM): 6.2%
- inhibition ([2]; compound 0.1 µM): -4.1%
- inhibition ([2]; compound 1.0 µM): -15.8%
- inhibition ([3]; compound 0.1 µM): 39.7%
- inhibition ([3]; compound 1.0 µM): 87.5%
- inhibition ([4]; compound 0.1 µM): 31.7%
- inhibition ([4]; compound 1.0 µM): 75.8%
- inhibition ([5]; compound 0.1 µM): -30.4%
- inhibition ([5]; compound 1.0 µM): 29.2%
- inhibition ([6]; compound 1.0 µM): 4.4%
- inhibition ([7]; compound 0.1 µM): 1.3%
- inhibition ([7]; compound 1.0 µM): 4.7%
- inhibition ([8]; compound 0.1 µM): -1.5%
- inhibition ([8]; compound 1.0 µM): 6.9%
- inhibition ([9]; compound 0.1 µM): 9.6%
- inhibition ([9]; compound 1.0 µM): 21.5%
- inhibition ([10]; compound 0.1 µM): 1.8%
- inhibition ([10]; compound 1.0 µM): 9.7%
- inhibition ([11]; compound 0.1 µM): 13.7%
- inhibition ([11]; compound 1.0 µM): 62.9%
- inhibition ([12]; compound 0.1 µM): 49.8%
- inhibition ([12]; compound 1.0 µM): 86.5%
- inhibition ([13]; compound 0.1 µM): -0.3%
- inhibition ([14]; compound 0.1 µM): 1%
- inhibition ([14]; compound 1.0 µM): 5.5%
- inhibition ([15]; compound 0.1 µM): -0.2%
- inhibition ([15]; compound 1.0 µM): 8.9%
- inhibition ([16]; compound 0.1 µM): 0.2%
- inhibition ([16]; compound 1.0 µM): 21.4%
- inhibition ([17]; compound 0.1 µM): -0.1%
- inhibition ([17]; compound 1.0 µM): -5.4%
- inhibition ([18]; compound 0.1 µM): -6%
- inhibition ([18]; compound 1.0 µM): 0.4%
- inhibition ([19]; compound 0.1 µM): 6.6%
- inhibition ([19]; compound 1.0 µM): 16.4%
- inhibition ([20]; compound 0.1 µM): 39.3%
- inhibition ([20]; compound 1.0 µM): 83.6%
- inhibition ([21]; compound 0.1 µM): 10.2%
- inhibition ([21]; compound 1.0 µM): 5.3%
- inhibition ([22]; compound 0.1 µM): 1.2%
- inhibition ([22]; compound 1.0 µM): 5.1%
- inhibition ([23]; compound 0.1 µM): -0.8%
- inhibition ([23]; compound 1.0 µM): 2.2%
- inhibition ([24]; compound 0.1 µM): 8.8%
- inhibition ([24]; compound 1.0 µM): 3.9%
- inhibition ([25]; compound 0.1 µM): -8.6%
- inhibition ([25]; compound 1.0 µM): -6.9%
- inhibition ([26]; compound 0.1 µM): 5.7%
- inhibition ([26]; compound 1.0 µM): -9.6%
- inhibition ([27]; compound 0.1 µM): 8%
- inhibition ([27]; compound 1.0 µM): 9.4%
- inhibition ([28]; compound 0.1 µM): 8.1% and 4.1%
- inhibition ([28]; compound 1.0 µM): 11.8% and 4.9%
- inhibition ([29]; compound 0.1 µM): -3.9%
- inhibition ([29]; compound 1.0 µM): 3.2%
- inhibition ([30]; compound 0.1 µM): -6.5%
- inhibition ([30]; compound 1.0 µM): -0.8%
- inhibition ([31]; compound 0.1 µM): -2.2%
- inhibition ([31]; compound 1.0 µM): 7.4%
- inhibition ([32]; compound 0.1 µM): -0.4%
- inhibition ([32]; compound 1.0 µM): 6.4%
- inhibition ([33]; compound 0.1 µM): -6%
- inhibition ([33]; compound 1.0 µM): 7.6%
- inhibition ([34]; compound 0.1 µM): -3.3%
- inhibition ([34]; compound 1.0 µM): -0.8%
SMILES: CN(c1ccc2ccc3ncc(-c4cnn(C)c4)cc3c(=O)c2c1)S(=O)(=O)NCc1ccccn1
